The target in assay [1] is T1, Recombinant human His6-USP1/His6-UAF1 complex protein (Homo sapiens, UniProt O94782).
T1 construct: His6; purchased R&D E-568-050
The assay is described as follows: In vitro inhibitory activity against USP1 (Ubiquitin Rhodamine 110 fluorescence detection, 384-well plate). It is filed as biochemical. The note with it: Ub-Rho substrate, 1 hour pre-incubation, read after 30 minutes. On the procedure:
Test Example 1: In vitro inhibitory activity against USP1 […]
Experimental object: to screen compounds with inhibitory activity against USP1 […] by a fluorescence detection method, using a 384-well plate.
Experimental materials: Recombinant human His6-USP1/His6-UAF1 complex protein (R&D, Cat. No.: E-568-050), Ubiquitin Rhodamine 110 protein (Ub-Rho) (R&D, Cat. No.: U-555-050), 384-well plate (Perkin Elmer, Cat. No.: 6007279); all compounds were dissolved in 100% DMSO to obtain 50 mM stock solutions.
• 1) Preparation of 1 × assay buffer: 1 × assay buffer (modified Tris buffer) was prepared; • 2) Dilution of compounds: the compounds were transferred to an assay plate via Echo.

The subject of another assay is MDA-MB-436. In words: CTG experiment for cell viability (CellTiter-Glo, 96-well plate, 7 days). The assay is classed as cell-based. The conditions noted are these: MDA-MB-436 cells, 7 days culture with compound. The method, then:
Test Example 2: CTG experiment for cell viability
• 1. Object: to screen USP1 inhibitors by a CTG assay, using a 96-well plate. • 2. Materials: • The cells used were MDA-MB-436 (manufacturer: Nanjing Cobioer Biotechnology Co., Ltd.) and cultured in DMEM medium, • CTG (CellTiter-Glo® Luminescent Cell Viability Assay kit) (Promega, Cat. No.: G7572), • 96-well plate (Corning, Cat. No.: 3610). • 3. Compounds: all compounds were dissolved in 100% DMSO to obtain 50 mM stock solutions. • 4. Experimental method: • ① Plating: The cells to be tested were spread into a 96-well plate at a certain density, with 200 µL per well, and 200 µL of cell medium was added to the blank wells. […] The cell plate with the compounds was placed in an incubator at 37°C, and further cultured for 7 days prior to detection. • ④ Assay: The substrate and the buffer of CTG kit were mixed evenly. The cell plate with the compounds in Step ③ was taken out from the incubator, and left at room temperature to equilibrate for 30 minutes. The medium containing the compounds was removed from the cell plate, 100 µL of PBS and 50 µL of CTG reagent were added to each well, shaken and mixed for 3 minutes, and then incubated for 10 minutes at room temperature. The plate was read by a BIotek microplate-reader, with a parameter set to 567 CPM. • 5. Curve fitting
It was the same as that for the enzyme.
On the technique in general: In ATP-based viability assays light output follows the ATP content of the culture.

[2] abbreviates: Homo sapiens, MDA-MB-436, 168 h.

T1 sequence (O94782 whole entry): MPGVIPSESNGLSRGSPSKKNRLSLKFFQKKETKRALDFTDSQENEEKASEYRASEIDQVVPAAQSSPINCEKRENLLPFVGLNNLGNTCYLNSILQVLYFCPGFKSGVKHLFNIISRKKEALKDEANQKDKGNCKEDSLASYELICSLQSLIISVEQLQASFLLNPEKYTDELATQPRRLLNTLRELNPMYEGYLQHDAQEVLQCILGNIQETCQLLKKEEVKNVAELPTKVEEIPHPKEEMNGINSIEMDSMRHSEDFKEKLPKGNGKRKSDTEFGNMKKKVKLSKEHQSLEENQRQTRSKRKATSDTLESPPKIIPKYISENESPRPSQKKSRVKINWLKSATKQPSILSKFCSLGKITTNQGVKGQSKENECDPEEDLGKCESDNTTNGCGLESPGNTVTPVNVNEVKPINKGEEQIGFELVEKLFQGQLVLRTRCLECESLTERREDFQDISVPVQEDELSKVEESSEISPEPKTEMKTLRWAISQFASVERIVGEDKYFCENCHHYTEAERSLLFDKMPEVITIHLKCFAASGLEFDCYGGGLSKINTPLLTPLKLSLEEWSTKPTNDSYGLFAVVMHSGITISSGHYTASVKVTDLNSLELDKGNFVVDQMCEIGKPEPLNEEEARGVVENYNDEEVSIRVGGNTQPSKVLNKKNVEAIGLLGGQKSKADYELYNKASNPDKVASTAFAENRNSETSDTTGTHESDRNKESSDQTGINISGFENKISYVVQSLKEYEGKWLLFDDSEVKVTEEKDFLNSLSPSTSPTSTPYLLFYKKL
T1 sequence (Q8TAF3 whole entry partner): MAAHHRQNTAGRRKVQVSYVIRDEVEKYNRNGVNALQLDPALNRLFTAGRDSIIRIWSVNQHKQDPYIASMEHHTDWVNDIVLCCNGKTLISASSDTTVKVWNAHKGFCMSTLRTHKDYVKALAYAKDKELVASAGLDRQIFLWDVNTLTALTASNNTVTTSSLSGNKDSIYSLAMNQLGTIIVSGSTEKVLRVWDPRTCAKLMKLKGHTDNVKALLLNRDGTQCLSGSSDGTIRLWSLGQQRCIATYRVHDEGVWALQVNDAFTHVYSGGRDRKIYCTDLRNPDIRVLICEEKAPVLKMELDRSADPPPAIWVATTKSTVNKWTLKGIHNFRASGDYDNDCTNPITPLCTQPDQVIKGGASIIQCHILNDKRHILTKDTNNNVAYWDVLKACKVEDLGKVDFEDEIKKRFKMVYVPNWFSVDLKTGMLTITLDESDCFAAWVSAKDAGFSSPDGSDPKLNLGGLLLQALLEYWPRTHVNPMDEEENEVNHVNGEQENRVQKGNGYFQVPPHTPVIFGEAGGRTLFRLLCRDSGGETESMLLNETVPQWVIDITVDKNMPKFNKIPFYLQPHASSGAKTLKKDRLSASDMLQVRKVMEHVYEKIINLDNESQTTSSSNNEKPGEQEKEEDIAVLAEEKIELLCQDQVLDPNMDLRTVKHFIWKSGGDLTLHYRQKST

Turning to `COc1ncnc(C2CC2)c1-c1ncc2c(n1)N(C[C@H]1CC[C@H](c3nc(C(F)(F)F)cn3C)CC1)CCO2` [Example 22, 2-(4-Cyclopropyl-6-methoxypyrimidin-5-yl)-8-(((1r,4r)-4-(1-methyl-4-(trifluoromethyl)-1H-imidazol-2-yl)cyclohexyl)methyl)-7,8-dihydro-6H-pyrimido[5,4-b][1,4]oxazine], the IC50 in assay [1] was 24.4 nM; with MDA-MB-436 (setting [2]) it was 209 nM. For `CCOCCOc1ccc(CNc2nc(-c3c(OC)ncnc3C3CC3)nc3ccoc23)cc1` [Example 117, 2-(4-Cyclopropyl-6-methoxypyrimidin-5-yl)-N-(4-(2-ethoxyethoxy)benzyl)furo[3,2-d]pyrimidin-4-amine], the results for the IC50 (in assay [1]; with MDA-MB-436 (setting [2])) were 13.8 nM and 278 nM, respectively.

In the case of `COc1cnc(-c2c(C)cnn2C(C)C)nc1NCc1ccc(-c2nc(C(F)(F)F)cn2C)cc1` [Example 202, 2-(1-Isopropyl-4-methyl-1H-pyrazol-5-yl)-5-methoxy-N-(4-(1-methyl-4-(trifluoromethyl)-1H-imidazol-2-yl)benzyl)pyrimidin-4-amine], the IC50 in assay [1] amounted to 3 nM; with MDA-MB-436 (setting [2]), 15.9 nM. Regarding `COc1cnc(-c2ccccc2C(C)C)nc1NCc1ccc(-c2nc(C(F)(F)F)cn2C)cc1` [Example 4, 2-(2-Isopropylphenyl)-5-methoxy-N-(4-(1-methyl-4-(trifluoromethyl)-1H-imidazol-2-yl)benzyl)pyrimidin-4-amine], the concentration for half-maximal inhibition (IC50) came out at 1.2 nM in assay [1] and 0.3 nM in the assay with MDA-MB-436 (setting [2]). `COc1cnc(-c2c(OC)ncnc2C2CC2)nc1N(C)Cc1ccc(-c2nc(C(F)(F)F)cn2C(C)C)cc1` [Example 93, 4'-Cyclopropyl-N-(4-(1-isopropyl-4-(trifluoromethyl)-1H-imidazol-2-yl)benzyl)-5,6'-dimethoxy-N-methyl-[2,5'-bipyrimidin]-4-amine]: the IC50 in assay [1] was 1.5 nM; in the assay with MDA-MB-436 (setting [2]), 3.5 nM. Regarding `COc1cnc(-c2c(Cl)cnn2C2CC2)nc1NCc1ccc(-c2nc(C(F)(F)F)cn2C)cc1` [Example 192, 2-(4-Chloro-1-cyclopropyl-1H-pyrazol-5-yl)-5-methoxy-N-(4-(1-methyl-4-(trifluoromethyl)-1H-imidazol-2-yl)benzyl)pyrimidin-4-amine], the values for the IC50 (in assay [1]; in the assay on MDA-MB-436 (setting [2])) were 3.8 nM and 20.4 nM, respectively. Regarding `Cc1cc(C(F)(F)F)nn1-c1ccc(CNc2nc(-c3ccccc3C(C)C)nc3ccoc23)cc1` [Example 57, 2-(2-Isopropylphenyl)-N-(4-(5-methyl-3-(trifluoromethyl)-1H-pyrazol-1-yl)benzyl)furo[3,2-d]pyrimidin-4-amine], the IC50 in assay [1] worked out at 4.4 nM; with MDA-MB-436 (setting [2]) it was 48.3 nM. Take `COc1cnc(-c2c(OC)ncnc2C2CC2)nc1NCc1ccc(-c2nc(C(F)(F)F)cn2CC(F)(F)F)cc1` [Example S7, 4'-Cyclopropyl-56'-dimethoxy-N-(4-(1-(2,2,2-trifluoroethyl)-4-(trifluoromethyl)-1H-imidazol-2-yl)benzyl)-[2,5'-bipyrimidin]-4-amine]: the IC50 in assay [1] amounted to 12 nM; with MDA-MB-436 (setting [2]), 17.1 nM.

For `CCOCCOc1ccc(CNc2nc(-c3c(OC)ncnc3C3CC3)ncc2OC)cc1` [Example 99, 4'-Cyclopropyl-N-(4-(2-ethoxyethoxy)benzyl)-5,6'-dimethoxy-[2,5'-bipyrimidin]-4-amine], the IC50 was found to be 15.1 nM in assay [1] and 445 nM with MDA-MB-436 (setting [2]). Turning to `C#Cc1cnc(-c2c(OC)ncnc2C2CC2)nc1NCc1ccc(-c2nc(C(F)(F)F)cn2C)cc1` [Example 132, 4'-Cyclopropyl-5-ethynyl-6'-methoxy-N-(4-(1-methyl-4-(trifluoromethyl)-1H-imidazol-2-yl)benzyl)-[2,5'-bipyrimidin]-4-amine], the IC50 was determined as 6 nM in assay [1] and 8.8 nM with MDA-MB-436 (setting [2]). As for `[2H]C([2H])([2H])N(Cc1ccc(-c2nc(C(F)(F)F)cn2C2CC2)cc1)c1nc(-c2c(OC)ncnc2C2CC2)ncc1F` [Example 128, 4'-Cyclopropyl-N-(4-(1-cyclopropyl-4-(trifluoromethyl)-1H-imidazol-2-yl)benzyl)-5-fluoro-6'-methoxy-N-(methyl-d3)-[2,5'-bipyrimidin]-4-amine], the IC50 came to 2.6 nM in assay [1] and 5.7 nM with MDA-MB-436 (setting [2]).

With `COc1cnc(-c2c(Cl)cnn2C(C)C)nc1NCc1ccc(-c2ccccn2)cc1` [Example 162, 2-(4-Chloro-1-isopropyl-1H-pyrazol-5-yl)-5-methoxy-N-(4-(pyridin-2-yl)benzyl)pyrimidin-4-amine], the IC50 in assay [1] was found to be 3.9 nM; in the assay with MDA-MB-436 (setting [2]) it was 77.5 nM. `COc1cnc(-c2c(Cl)cnn2C(C)C)nc1NCC1CCN(c2nc(C(F)(F)F)cn2C)CC1` [Example 163, 2-(4-Chloro-1-isopropyl-1H-pyrazol-5-yl)-5-methoxy-N-((1-(1-methyl-4-(trifluoromethyl)-1H-imidazol-2-yl)piperidin-4-yl)methyl)pyrimidin-4-amine]: the figures for the IC50 (in assay [1]; in the assay with MDA-MB-436 (setting [2])) were 2.3 nM and 13.5 nM, respectively. Consider `[2H]C([2H])([2H])N(C[C@H]1CC[C@H](c2nc(C(F)(F)F)cn2C)CC1)c1nc(-c2c(OC)ncnc2C2CC2)ncc1OC` [Example S22, 4'-Cyclopropyl-5,6'-dimethoxy-N-(methyl-d3)-N-(((1r,4r)-4-(1-methyl-4-(trifluoromethyl)-1H-imidazol-2-yl)cyclohexyl)methyl)-[2,5'-bipyrimidin]-4-amine], for which the IC50 in assay [1] was 4.6 nM; in the assay with MDA-MB-436 (setting [2]) it was 4.5 nM.

Consider `COc1cnc(-c2cccnc2C(C)C)nc1NCc1ccc(-c2nc(C(F)(F)F)cn2C)cc1` [Example 157, 2-(2-Isopropylpyridin-3-yl)-5-methoxy-N-(4-(1-methyl-4-(trifluoromethyl)-1H-imidazol-2-yl)benzyl)pyrimidin-4-amine], for which the IC50 stood at 2.9 nM in assay [1] and 23.3 nM with MDA-MB-436 (setting [2]). For `COc1cnc(-c2c(OC)ncnc2C2CC2)nc1NCc1ccc(-c2ccccn2)cc1` [Example 94, 4'-Cyclopropyl-5,6'-dimethoxy-N-(4-(pyridin-2-yl)benzyl)-[2,5'-bipyrimidin]-4-amine], the figures for the IC50 (in assay [1]; with MDA-MB-436 (setting [2])) were 6.5 nM and 275 nM, respectively.

As for `COc1cnc(-c2c(Cl)cnn2C(C)C)nc1N(C)CC12CCC(c3nc(C(F)(F)F)cn3C)(CC1)OC2` [Example S17, 2-(4-Chloro-1-isopropyl-1H-pyrazol-5-yl)-5-methoxy-N-methyl-N-((1-(1-methyl-4-(trifluoromethyl)-1H-imidazol-2-yl)-2-oxabicyclo[2.2.2]oct-4-yl)methyl)pyrimidin-4-amine], the IC50 turned out to be 6.1 nM in assay [1] and 35.9 nM in the assay on MDA-MB-436 (setting [2]).

In the case of `COc1cc(CNc2nc(-c3c(OC)ncnc3C3CC3)ncc2OC)ccc1-c1nc(C(F)(F)F)cn1C` [Example 101, 4'-Cyclopropyl-5,6'-dimethoxy-N-(3-methoxy-4-(1-methyl-4-(trifluoromethyl)-1H-imidazol-2-yl)benzyl)-[2,5'-bipyrimidin]-4-amine], the IC50 in assay [1] is 15 nM; with MDA-MB-436 (setting [2]), 99.1 nM.

On to `COc1cnc(-c2c(OC)ncnc2C2CC2)nc1NCC1CCC(c2nc(C(F)(F)F)cn2C(C)C)CC1` [Example S25, 4'-Cyclopropyl-N-((1R,4R)-4-(1-isopropyl-4-(trifluoromethyl)-1H-imidazol-2-yl)cyclohexyl)methyl)-5,6'-dimethoxy-[2,5'-bipyrimidin]-4-amine], for which, in the assay with MDA-MB-436, the half-inhibitory concentration (IC50) worked out at 24.4 nM. Regarding `COc1ncnc(C2CC2)c1-c1ncc2c(n1)N(Cc1ccc(-c3nc(C(F)(F)F)cn3C)cc1)C(=O)CO2` [Example 18, 2-(4-Cyclopropyl-6-methoxypyrimidin-5-yl)-8-(4-(1-methyl-4-(trifluoromethyl)-1H-imidazol-2-yl)benzyl)-6H-pyrimido[5,4-b][1,4]oxazin-7(8H)-one], the IC50 in the assay with MDA-MB-436 (setting [2]) is 313 nM. Same read-out and setting: the value for `Cn1cc(C(F)(F)F)nc1-c1ccc(CNc2nc(-c3cccnc3C3CC3)ncc2OC(F)F)cc1` [Example 156, 2-(2-Cyclopropylpyridin-3-yl)-5-(difluoromethoxy)-N-(4-(1-methyl-4-(trifluoromethyl)-1H-imidazol-2-yl)benzyl)pyrimidin-4-amine] was 59.5 nM. Take `COc1cnc(-c2c(OC)ncnc2C2CC2)nc1N(C)C[C@H]1CC[C@H](c2nc(C(F)(F)F)cn2C2CC2)CC1` [Example S28, 4'-Cyclopropyl-N-(((1R,4R)-4-(1-cyclopropyl-4-(trifluoromethyl)-1H-imidazol-2-yl)cyclohexyl)methyl)-5,6'-dimethoxy-N-methyl-[2,5'-bipyrimidin]-4-amine]: in the assay with MDA-MB-436, the 50% inhibitory concentration (IC50) came out at 0.3 nM.

In general, IC50 refers to the concentration that inhibits the measured activity by half.

The values are drawn from patent EP4741386A1 (Jiangsu Yahong Meditech Co., Ltd., priority 2023, dated 2025).
